Tested on: promoter of yeast gene YKL071w
Experiment: Dissolved oxygen measurement with oxygen electrode using yeast transformed with YKL071w promoter linked to oxidase (pyridoxamine phosphate substrate)
Type: cell-based, Saccharomyces cerevisiae W303
Details: sample solutions A, B, C with 0.0053, 0.053, 0.53 ppm versus standard solution S; FIG. 4
Description: Primers for PCR to amplify the polynucleotide comprising the promoter of yeast gene YKL071w were prepared. Primers were designed using a primer design software, Oligo4.0-S, Sequencher I Mackintosh version. The base sequence of the upper primer was:
For PCR, yeast chromosome (Saccharomyces cerevisiae S288C, Cat.40802, Research Genetics, Inc.) was used as template, and the commercially available kit (KOD DNA Polymerase; Code KOD-101, Toyobo) was used as reagents. […]
The yeast in a steady state is diluted 500 times with the SD medium, and it is shake cultured at 25° C. for 15 hours. After confirming the logarithmic growth phase at which absorbance at 600 nm is within 0.2 to 0.5, different concentrations of TPN is loaded. […]
By comparing a temporal change in a measured current value for the sample solution A, B or C and a temporal change in a measured current value for the standard solution S, an amount of pyridoxamine phosphate oxidase produced by stimulation of the chemical substance (TPN) in respective solutions for measurement may be determined and, thereby, existence or a quantity of the chemical substance may be detected.

## N#Cc1c(Cl)c(Cl)c(Cl)c(C#N)c1Cl [(9), 2,4,5,6-Tetrachloro-1,3-benzenedicarbonitrile]
  Temporal change in current value for dissolved oxygen measurement: as the concentration of the chemical substance (TPN) becomes larger, a decreasing rate of a current value at an initial stage becomes larger and a steady state value after reaching a plateau becomes lower
